In the supplement of paper PMC11061612:

Tests used:
Assay in all cases: Bliss excess, mean over the matrix (fraction); higher = more synergy
EW-24 (Ewing's Sarcoma) = tested on: EW-24 (Ewing's Sarcoma)
How it was run: (§1)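 After 24 hours at 37°C and 5% CO2 in 1536-well plates, cells in DMEM/F12 or RPMI plus 10% FBS received two-drug dose matrices for 72 hours. Viability came from CellTiter-Glo 2.0 luminescence and was scaled as inhibition, anchored at 0 by vehicle wells and at 1 by blank wells. Combination Emax is taken as the second-highest inhibition in the matrix, and Bliss excess as the observed combination effect less EA + EB − EA·EB, with EA and EB the single-agent effects.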

UACC-62 (Melanoma) = tested on: UACC-62 (Melanoma)
How it was run: as §1

[1] = tested on: C-4-I (Cervical Carcinoma)
How it was run: as §1

[2] = tested on: BT-549 (Breast Carcinoma)
How it was run: as §1

[3] = tested on: NCI-H727 (Other Solid Carcinomas)
How it was run: as §1

PWR-1E (Non-Cancerous) = tested on: PWR-1E (Non-Cancerous)
How it was run: as §1

[4] = tested on: EoL-1-cell (Acute Myeloid Leukemia)
How it was run: as §1

[5] = tested on: MIA-PaCa-2 (Pancreatic Carcinoma)
How it was run: as §1

[6] = tested on: NCI-H1915 (Non-Small Cell Lung Carcinoma)
How it was run: as §1

[7] = tested on: RF-48 (B-Cell Non-Hodgkin's Lymphoma)
How it was run: as §1

[8] = tested on: VA-ES-BJ (Other Solid Carcinomas)
How it was run: as §1

[9] = tested on: SU8686 (Pancreatic Carcinoma)
How it was run: as §1

D-263MG (Glioblastoma) = tested on: D-263MG (Glioblastoma)
How it was run: as §1

[10] = tested on: HGC-27 (Gastric Carcinoma)
How it was run: as §1

[11] = tested on: EFM-19 (Breast Carcinoma)
How it was run: as §1

[12] = tested on: MLMA (Other Blood Carcinomas)
How it was run: as §1

[13] = tested on: SW13 (Other Solid Carcinomas)
How it was run: as §1

[14] = tested on: AMO-1 (Plasma Cell Myeloma)
How it was run: as §1

[15] = tested on: OVCAR-4 (Ovarian Carcinoma)
How it was run: as §1

NB69 (Neuroblastoma) = tested on: NB69 (Neuroblastoma)
How it was run: as §1

| Structure (SMILES) | Bliss excess (EW-24 (Ewing's Sarcoma)) | Bliss excess (UACC-62 (Melanoma)) | Bliss excess [1] | Bliss excess [2] | Bliss excess [3] | Bliss excess (PWR-1E (Non-Cancerous)) | Bliss excess [4] | Bliss excess [5] | Bliss excess [6] | Bliss excess [7] | Bliss excess [8] | Bliss excess [9] | Bliss excess (D-263MG (Glioblastoma)) | Bliss excess [10] | Bliss excess [11] | Bliss excess [12] | Bliss excess [13] | Bliss excess [14] | Bliss excess [15] | Bliss excess (NB69 (Neuroblastoma)) |
| --- | --- | --- | --- | --- | --- | --- | --- | --- | --- | --- | --- | --- | --- | --- | --- | --- | --- | --- | --- | --- |
| Cc1c2c(nn1C)CSCc1cc(n(C)n1)CSc1cc(c3ccccc3c1)OCCCc1c(C(=O)O)n(C)c3c-2c(Cl)ccc13 [AZD5991] + CN(C)CCCOc1ccc(-c2ccc3ncc4c(c3c2)n(C2CCOCC2)c(=O)n4C)cn1 [AZD0156] (first compound max 1 µM, 7x7, partner max 1 µM) | 0.0103 | -0.0516 | 0.0063 | -0.004 | 0.043 | 0.027 | -0.006 | -0.0084 | -0.0186 | -0.0117 | -0.0027 | -0.0413 | 0.0047 | 0.0458 | -0.03 | -0.0056 | -0.0092 | 0.0058 | 0.0076 | -0.136 |
| COc1cccc(OCCCN)c1-c1cc(Nc2cnc(C#N)cn2)n[nH]1 [Prexasertib] + Cc1cc2ncnn2cc1Nc1ncc2c(n1)n(C1CCOCC1)c(=O)n2C [AZD7648] (first compound max 1 µM, 7x7, partner max 10 µM) | -0.0019 | -0.0125 | 0.0005 | -0.0341 | -0.022 | -0.0243 | -0.0003 | -0.0172 | -0.008 | -0.0549 | 0.013 | -0.0227 | -0.0394 | -0.0235 | -0.0676 | -0.0204 | 0.0009 | -0.004 | -0.0739 | 0.0182 |
| Cc1c2c(nn1C)CSCc1cc(n(C)n1)CSc1cc(c3ccccc3c1)OCCCc1c(C(=O)O)n(C)c3c-2c(Cl)ccc13 [AZD5991] + CC1(C)CCC(CN2CCN(c3ccc(C(=O)NS(=O)(=O)c4ccc(NCC5CCOCC5)c([N+](=O)[O-])c4)c(Oc4cnc5[nH]ccc5c4)c3)CC2)=C(c2ccc(Cl)cc2)C1 [Venetoclax] (first compound max 1 µM, 7x7, partner max 1 µM) | -0.0224 | 0.0296 | -0.0019 | 0.0296 | -0.012 | 0.0087 | 0.167 | -0.023 | -0.0211 | 0.12 | -0.0429 | -0.0391 | -0.0036 | 0.1 | 0.0055 | -0.0034 | 0.0016 | 0.0456 | 0.0108 | 0.136 |
| Cn1cnc2c(F)c(Nc3ccc(Br)cc3Cl)c(C(=O)NOCCO)cc21 [Selumetinib] + C=CCn1c(=O)c2cnc(Nc3ccc(N4CCN(C)CC4)cc3)nc2n1-c1cccc(C(C)(C)O)n1 [AZD1775] (first compound max 10 µM, partner max 1 µM) | -0.0025 | -0.0006 | 0.0083 | -0.0578 | -0.0891 | -0.0663 | -0.053 | 0.0552 | -0.0462 | -0.0372 | -0.112 | -0.0089 | -0.0567 | -0.052 | -0.0121 | -0.0257 | -0.0576 | -0.0108 | -0.0698 | -0.0004 |
| CC1(C)CCC(CN2CCN(c3ccc(C(=O)NS(=O)(=O)c4ccc(NCC5CCOCC5)c([N+](=O)[O-])c4)c(Oc4cnc5[nH]ccc5c4)c3)CC2)=C(c2ccc(Cl)cc2)C1 [Venetoclax] + Cn1cnc2c(F)c(Nc3ccc(Br)cc3Cl)c(C(=O)NOCCO)cc21 [Selumetinib] (first compound max 1 µM, 7x7, partner max 3 µM) | -0.0463 | -0.0235 | -0.0299 | -0.0691 | -0.0534 | -0.0327 | 0.158 | -0.0073 | -0.0541 | -0.0034 | -0.0473 | -0.0792 | -0.0292 | -0.0178 | -0.0607 | 0.0401 | 0.0137 | 0.0092 | -0.02 | 0.0179 |
| CC1(C)CCC(CN2CCN(c3ccc(C(=O)NS(=O)(=O)c4ccc(NCC5CCOCC5)c([N+](=O)[O-])c4)c(Oc4cnc5[nH]ccc5c4)c3)CC2)=C(c2ccc(Cl)cc2)C1 [Venetoclax] + CCN(CCO)CCCOc1ccc2c(Nc3cc(CC(=O)Nc4cccc(F)c4)[nH]n3)ncnc2c1 [AZD2811] (first compound max 1 µM, 7x7, partner max 1 µM) | 0.0194 | -0.0027 | 0.0484 | -0.0111 | -0.0795 | -0.0234 | 0.0108 | -0.0362 | 0.0163 | 0.0498 | 0.0108 | -0.0364 | 0.0431 | 0.0075 | 0.0005 | -0.0633 | 0.0311 | 0.0249 | 0.0264 | 0.0179 |
| C=CCn1c(=O)c2cnc(Nc3ccc(N4CCN(C)CC4)cc3)nc2n1-c1cccc(C(C)(C)O)n1 [AZD1775] + C1CN(CCC1(C(=O)N[C@@H](CCO)C2=CC=C(C=C2)Cl)N)C3=NC=NC4=C3C=CN4 [Capivasertib] (first compound max 3 µM, partner max 3 µM) | -0.0878 | 0.0375 | 0.0113 | -0.0628 | -0.0584 | -0.0165 | -0.0451 | -0.0471 | 0.0032 | -0.0989 | -0.0037 | -0.0619 | -0.0143 | 0.0785 | -0.0443 | -0.0415 | -0.016 | 0.0002 | -0.0627 | -0.0304 |
| C=CCn1c(=O)c2cnc(Nc3ccc(N4CCN(C)CC4)cc3)nc2n1-c1cccc(C(C)(C)O)n1 [AZD1775] + C[C@@H]1COCCN1C2=NC(=NC(=C2)C3(CC3)[S@](=N)(=O)C)C4=C5C=CNC5=NC=C4 [AZD6738] (first compound max 1 µM, partner max 10 µM) | -0.0427 | 0.0163 | 0.0088 | 0.0107 | 0.0078 | 0.0106 | 0.0033 | 0.12 | -0.0225 | -0.0098 | 0.0568 | -0.0188 | -0.0766 | 0.118 | -0.0503 | -0.0079 | 0.0169 | -0.0139 | 0.0352 | 0.0351 |
| COc1nnc2ccc(N3CCC(c4ccc(OCCN5CCN(C)C(=O)[C@H]5C)cc4)CC3)nn12 [AZD5153] + CC1(C)CCC(CN2CCN(c3ccc(C(=O)NS(=O)(=O)c4ccc(NCC5CCOCC5)c([N+](=O)[O-])c4)c(Oc4cnc5[nH]ccc5c4)c3)CC2)=C(c2ccc(Cl)cc2)C1 [Venetoclax] (first compound max 1 µM, 7x7, partner max 1 µM) | -0.0962 | -0.0271 | -0.05 | -0.0031 | -0.0558 | -0.0826 | -0.0183 | -0.0739 | -0.0659 | -0.0312 | -0.0486 | -0.0501 | -0.0613 | -0.0808 | -0.0442 | -0.0084 | -0.0458 | -0.0483 | -0.0104 | 0.0488 |
| C=CCn1c(=O)c2cnc(Nc3ccc(N4CCN(C)CC4)cc3)nc2n1-c1cccc(C(C)(C)O)n1 [AZD1775] + O=C(c1cc(Cc2n[nH]c(=O)c3ccccc23)ccc1F)N1CCN(C(=O)C2CC2)CC1 [Olaparib] (first compound max 1 µM, partner max 10 µM) | -0.0708 | -0.0207 | 0.0103 | -0.0528 | -0.0055 | -0.0175 | 0.0165 | -0.0344 | -0.0223 | 0.0129 | -0.0424 | -0.0399 | -0.0366 | 0.0224 | -0.0456 | -0.0914 | -0.0137 | -0.0631 | 0.0249 | 0.0619 |
| COc1nnc2ccc(N3CCC(c4ccc(OCCN5CCN(C)C(=O)[C@H]5C)cc4)CC3)nn12 [AZD5153] + Cn1cnc2c(F)c(Nc3ccc(Br)cc3Cl)c(C(=O)NOCCO)cc21 [Selumetinib] (first compound max 1 µM, 7x7, partner max 10 µM) | -0.0748 | 0.0397 | 0.0398 | -0.0019 | -0.0146 | -0.0044 | 0.0345 | -0.0371 | -0.0186 | -0.0939 | -0.0155 | -0.0166 | 0.0205 | -0.083 | -0.0565 | -0.0447 | 0.0304 | -0.0076 | -0.0214 | 0.0191 |
| CC1(C)CCC(CN2CCN(c3ccc(C(=O)NS(=O)(=O)c4ccc(NCC5CCOCC5)c([N+](=O)[O-])c4)c(Oc4cnc5[nH]ccc5c4)c3)CC2)=C(c2ccc(Cl)cc2)C1 [Venetoclax] + COc1cc(Nc2ncc3c(n2)-c2ccc(Cl)cc2C(c2c(F)cccc2OC)=NC3)ccc1C(=O)O [Alisertib] (first compound max 1 µM, 7x7, partner max 10 µM) | 0.0205 | 0.01 | -0.0158 | 0.0371 | -0.0707 | -0.0103 | 0.0132 | -0.0131 | -0.0072 | 0.194 | -0.0089 | -0.0438 | 0.0522 | 0.0133 | -0.0049 | -0.046 | 0.0421 | -0.0586 | -0.0215 | 0.0765 |
| NC1(C(=O)N[C@@H](CCO)c2ccc(Cl)cc2)CCN(c2ncnc3[nH]ccc23)CC1 [Capivasertib] + C[C@@H]1COCCN1C2=NC(=NC(=C2)C3(CC3)[S@](=N)(=O)C)C4=C5C=CNC5=NC=C4 [AZD6738] (first compound max 10 µM, 7x7, partner max 10 µM) | -0.0488 | 0.0231 | 0.0234 | -0.0724 | -0.0734 | -0.0534 | 0.0272 | -0.04 | -0.081 | -0.0888 | -0.0088 | -0.032 | -0.0685 | -0.0182 | -0.0072 | -0.0719 | -0.049 | -0.021 | -0.0267 | -0.0728 |
| Cc1c2c(nn1C)CSCc1cc(n(C)n1)CSc1cc(c3ccccc3c1)OCCCc1c(C(=O)O)n(C)c3c-2c(Cl)ccc13 [AZD5991] + CCN(CCO)CCCOc1ccc2c(Nc3cc(CC(=O)Nc4cccc(F)c4)[nH]n3)ncnc2c1 [AZD2811] (first compound max 1 µM, 7x7, partner max 1 µM) | -0.0172 | -0.0113 | 0.0332 | 0.0908 | 0.0473 | 0.151 | 0.0044 | 0.0738 | 0.0197 | 0.0211 | 0.0703 | -0.0135 | 0.122 | 0.0635 | 0.122 | 0.028 | 0.0895 | 0.0145 | 0.0989 | 0.0311 |
